# According to patent publication US11464733B2, “Enema for rectal application” (Dr. Falk Pharma GmbH, priority 2016, dated 2022):
# System: patients with active ulcerative colitis
# Assay: Placebo-controlled double-blind trial: mucosal endoscopy, MMDAI endoscopic finding score
# Assay type: in vivo, human
# Conditions: for Number of subjects with MMDAI endoscopic finding score 0 / Number of subjects with MMDAI endoscopic finding score 1 / Number of subjects with MMDAI endoscopic finding score 2 / Number of subjects with MMDAI endoscopic finding score 3 / Percentage of subjects with MMDAI endoscopic finding score 0 / Percentage of subjects with MMDAI endoscopic finding score 1 / Percentage of subjects with MMDAI endoscopic finding score 2 / Percentage of subjects with MMDAI endoscopic finding score 3: 2 mg rectal foam twice a day, 20 cases
# Protocol: Placebo-controlled randomized double-blind multicenter collaborative parallel group comparison test
# Superiority of the budesonide compared with placebo for mucosal healing as the primary endpoint are investigated for patients with active ulcerative colitis when budesonide 2 mg is rectally administered twice a day for 6 weeks by a double-blind comparative study with placebo as a control, and the safety thereof was investigated.
# Furthermore, the efficacy and safety of administering were investigated, to patients with inflammatory bowel disease who have been administered 1.5 to 2.5 mg of budesonide twice a day for 6 weeks and shown signs of healing but no mucous membrane healing, 1.5 to 2.5 mg of budesonide twice a day for an additional 6 weeks (for a total of 12 weeks) (clinical trial number: Japic CTI—142704).
# For the trial, an aerosol with fixed dose injection type for rectal injection (rectal foaming agent) is used as a test drug, in which 25 mL (1.35 g) of white creamy foam containing 2 mg of budesonide is released by one injection. As a remission induction therapeutic agent of ulcerative colitis in active phase where the lesion is confined to the rectum and sigmoid colon, the aerosol for rectal injection is approved in Europe at a dosage and dose of budesonide 2 mg once a day (trade name: Budenofalk 2 mg/dose rectal foam, manufactured by Dr. Falk Pharma GmbH).
# The subjects are ulcerative colitis patients in active phase, and are divided into a group administered the test drug twice a day (hereafter, the budesonide-administered group), and a group administered the control drug (hereinafter, the placebo group).
# The test drug or control drug is rectally administered twice a day (once in the morning and once in the evening), after defecation, if possible. The number of injections per dose is one, the administration period is 6 weeks, if no mucous membrane healing occurred (an endoscope view score of 0 points), an administration period of 12 weeks can be used, and the drug is administered until the evening before the evaluation. The dose of budesonide in each group is 4 mg/day for the twice a day group, and 0 mg/day for the placebo group. The subjects with a 12-week administration period included 20 subjects in the budesonide administered group, and 18 subjects in the placebo group.
# The score by the doctor was used for the initial test, and after an administration period of 6 weeks, whether the prescription was continued for 6 more weeks or not. The score by the central judgment committee was used as the judgement of effectiveness. […] Furthermore, the change of the endoscope finding score from 6th week to 12th week of each subject of placebo group is shown in Table 2, and the change in the endoscope finding score from 6th week to 12th week of each subject of the budesonide-administered group is shown in Table 3.
# [1] = 0 week (before administration), 12-week subjects
# [2] = Table 3 total over 6th week scores, of 20
# [3] = Table 3 total over 6th week scores, unmeasured listed separately, of 20
# [4] = change from 6th to 12th week, 2 mg twice a day, of 20
smiles,measurement,setting,value
"CCCC1O[C@@H]2C[C@H]3[C@@H]4CCC5=CC(=O)C=C[C@]5(C)[C@H]4[C@@H](O)C[C@]3(C)[C@]2(C(=O)CO)O1 (mixture of isomers) [Budesonide, (+)-[(RS)-16α,17α-Butylidenedioxy-11β,21-dihydroxy-1,4-pregnadiene-3,20-dione]]",Number of subjects with MMDAI endoscopic finding score 0,[1],0 subjects
same,Number of subjects with MMDAI endoscopic finding score 1,[1],3 subjects
same,Number of subjects with MMDAI endoscopic finding score 2,[1],16 subjects
same,Number of subjects with MMDAI endoscopic finding score 3,[1],1 subjects
same,Percentage of subjects with MMDAI endoscopic finding score 0,[1],(0.0) %
same,Percentage of subjects with MMDAI endoscopic finding score 1,[1],(15.0) %
same,Percentage of subjects with MMDAI endoscopic finding score 2,[1],(80.0) %
same,Percentage of subjects with MMDAI endoscopic finding score 3,[1],(5.0) %
same,"Percentage with an endoscope view score of 0 in the 12th week, except for non-measured group","6/15 examples, placebo 0% (0/13), administration continued for 6 more weeks",40.0%
same,Number of subjects with MMDAI endoscopic finding score 0,"6th week, 12-week subjects",4 subjects
same,Number of subjects with MMDAI endoscopic finding score 1,"6th week, 12-week subjects",14 subjects
same,Number of subjects with MMDAI endoscopic finding score 2,"6th week, 12-week subjects",2 subjects
same,Number of subjects with MMDAI endoscopic finding score 3,"6th week, 12-week subjects",0 subjects
same,Percentage of subjects with MMDAI endoscopic finding score 1,"6th week, 12-week subjects",(70.0) %
same,Number of subjects with MMDAI endoscopic finding score 0,12th week (Table 1),6 subjects
same,Number of subjects with MMDAI endoscopic finding score 1,12th week (Table 1),8 subjects
same,Number of subjects with MMDAI endoscopic finding score 2,12th week (Table 1),6 subjects
same,Number of subjects with MMDAI endoscopic finding score 3,12th week (Table 1),0 subjects
same,Percentage of subjects with MMDAI endoscopic finding score 0,12th week (Table 1),(30.0) %
same,Percentage of subjects with MMDAI endoscopic finding score 1,12th week (Table 1),(40.0) %
same,Percentage of subjects with MMDAI endoscopic finding score 2,12th week (Table 1),(30.0) %
same,Percentage of subjects with MMDAI endoscopic finding score 3,12th week (Table 1),(0.0) %
same,"Number of subjects, 12th week Unmeasured, Total",[2],5 subjects
same,"Percentage of subjects, 12th week Unmeasured, Total",[2],(25.0) %
same,"Number of subjects, endoscope finding score 12th week 0, Total",[3],6 subjects
same,"Number of subjects, endoscope finding score 12th week 1, Total",[3],7 subjects
same,"Number of subjects, endoscope finding score 12th week 2, Total",[3],2 subjects
same,"Number of subjects, endoscope finding score 12th week 3, Total",[3],0 subjects
same,"Percentage of subjects, endoscope finding score 12th week 0, Total",[3],(30.0) %
same,"Percentage of subjects, endoscope finding score 12th week 1, Total",[3],(35.0) %
same,"Percentage of subjects, endoscope finding score 12th week 2, Total",[3],(10.0) %
same,"Percentage of subjects, endoscope finding score 12th week 3, Total",[3],(0.0) %
same,"Number of subjects, endoscope finding score 6th week 0 / 12th week 0",[4],0 subjects
same,"Number of subjects, endoscope finding score 6th week 0 / 12th week 1",[4],1 subjects
same,"Number of subjects, endoscope finding score 6th week 0 / 12th week 2",[4],0 subjects
same,"Number of subjects, endoscope finding score 6th week 0 / 12th week 3",[4],0 subjects
same,"Number of subjects, endoscope finding score 6th week 0 / 12th week Unmeasured",[4],3 subjects
same,"Number of subjects, endoscope finding score 6th week 1 / 12th week 0",[4],5 subjects
same,"Number of subjects, endoscope finding score 6th week 1 / 12th week 1",[4],6 subjects
same,"Number of subjects, endoscope finding score 6th week 1 / 12th week 2",[4],1 subjects
same,"Number of subjects, endoscope finding score 6th week 1 / 12th week 3",[4],0 subjects
same,"Number of subjects, endoscope finding score 6th week 1 / 12th week Unmeasured",[4],2 subjects
same,"Number of subjects, endoscope finding score 6th week 2 / 12th week 0",[4],1 subjects
same,"Number of subjects, endoscope finding score 6th week 2 / 12th week 1",[4],0 subjects
same,"Number of subjects, endoscope finding score 6th week 2 / 12th week 2",[4],1 subjects
same,"Number of subjects, endoscope finding score 6th week 2 / 12th week 3",[4],0 subjects
